± gives the expanded uncertainty stated by the source.
Details: Liquid; for mass density: 298.15 K; for mass density / molar volume: 101.33 kPa; for molar volume / vapor or sublimation pressure: 313.15 K; for molar volume: Vibrating tube method; for vapor or sublimation pressure: Ebulliometric method (Recirculating still)

| Structure (SMILES) | mass density | molar volume | vapor or sublimation pressure |
| --- | --- | --- | --- |
| ClCCCl [1,2-dichloroethane] | 1246.59 ± 0.41 kg/m3 | 8.1e-05 ± 1e-06 m3/mol | 21.05 ± 0.2 kPa |
| ClCCBr [1-bromo-2-chloroethane] | 1727.88 ± 1.9 kg/m3 | 8.4e-05 ± 1e-06 m3/mol | 8.91 ± 0.1 kPa |
| ClCBr [bromochloromethane] | 1924.88 ± 1.3 kg/m3 | 6.9e-05 ± 1e-06 m3/mol | 37.28 ± 0.43 kPa |
| BrCBr [dibromomethane] | 2478.37 ± 2.3 kg/m3 | 7.1e-05 ± 1e-06 m3/mol | 13.01 ± 0.15 kPa |
| CCOC(C)=O [ethyl acetate] | 894.97 ± 0.27 kg/m3 | 0.000101 ± 1e-06 m3/mol | 25.3 ± 0.2 kPa |
